Results taken from patent US8314255B2, “Use of phthalimide and/or sulphonamide derivatives in the treatment of diseases which require reducing the TNF- α levels and an exogenous source of nitric oxide, phthalimide derivatives, sulphonamide derivatives, and a method for obtaining a sulphonamide derivative” (priority 2007, dated 2012).

Tests used:
[1] = tested on: Salmonella typhimurium TA100; assay: AMES test, mutagenic evaluation in Salmonella typhimurium TA100 strain with/without metabolic activation (S9); assay type: cell-based
Experimental: (§1) The procedure was firstly developed by (MARON, D. M. and AMES, B. N. Mut. Res. v. 113, pp. 173-215, 1983)
(§2) For this assay, Salmonella typhimurium TA100 and TA102 strains from the mutagenicity laboratory of the “Faculdade de Ciências Farmacêuticas—UNESP Araraquara” were used. Such strains have the following characteristics: (AMES, 1983)
(§3) The positive controls are mutagenic compounds specific for each strain and test condition, with 25 μL/plate of sodium azide (1.25 μg/plate) and 100 μL of mitomycin (0.5 μg/plate) being the controls for TA100 and TA102, respectively, in the absence of metabolic activation. For assays with metabolic activation, the positive control for TA100 is 50 μL 2-antramine (1.25 μg/plate) and for TA102 it is 50 μL 2-aminofluorene (1.25 μg/plate).
(§4) The preincubation method was used.
(§5) In laminar flow, Salmonella typhimurium (TA100 and TA 102) strains were inoculated individually with a platinum loop, in the respective nutrient broths and maintained at 37° C., under constant stirring (160 rpm) during 14 hours, in order to achieve a density of 1 to 2×10^9 bacteria/mL.
(§6) Different concentrations of the compounds were added into 100 μL of 0.2M phosphate buffer pH 7.4 (or 500 μL of the mixture S9 in metabolic activation assays) and incubated for 20-30 minutes at 37° C. Solutions containing the compounds had DMSO as the solvent. Thereafter, 2 mL of top agar supplemented with traces of histidine and biotin was added, homogenized and plated in glycosylated minimum medium. After solidification of the top agar, the plates were incubated for 48 hours at a 37° C. Then, the counting of the number of revertant colonies per plate was performed. All tested concentrations, positive and negative controls were run in triplicate.
(§7) After 48 hours, the revertant colonies were counted manually, and the protoCOL Colony Counter Version 3.15.630 (1998-2001) SYNBIOSIS LTD system was used for the positive control.
(§8) The final data obtained from the assay was analyzed using the statistical software Salanal (Salmonella Assay Analysis) version 1.0 from the Research Triangle Institute, RTP, North Carolina, USA. Such software allows the dose-response effect to be evaluated by means of analysis of variance (ANOVA-test F) computations between the measurement of the number of revertants at the different tested concentrations (doses) and the negative control, followed by a linear regression. The software model chosen for analyzing the data was Bernstein's (BERNSTEIN, L. et al. Mutat. Res. v. 97, p. 267-281, 1982). The slope of the straight line from the linear portion of the dose-response curve is also provided by this software and corresponds to the number of revertants induced per measurement unit of the analyzed sample.
(§9) From the results, the mutagenicity ratio (MR) was computed for each analyzed dose from each compound. MR is given by the following equation:
(§10) MR=average number of revertants per test plate (spontaneous+induced revertants) […] average number of revertants per plate of the negative control (spontaneous revertants)
(§11) The spontaneous growing means that the number of revertants which developed on the plate, regardless of being induced or not, wherein values higher or equal to 2 are considered as a positive response (VALENT, G. V. et al. Env. Toxicol. Water Quality. v. 8, p. 371-381, 1993).
(§12) The mutagenicity test with metabolic activation system was performed with a microsomal fraction S9 (S9 mix) prepared from a liver homogenizate from Sprague Dawley rats, previously treated with Aroclor 1254, acquired in the freeze-dried form.
(§13) The procedure for this assay is the same, however, instead of the buffer, 500 μL of the S9 mixture should be added.
(§14) The S9 mixture has a viability of 4 hours from preparation when put on ice. The plates are then incubated for 48 hours at 37° C. After the required time has elapsed, the counting of the revertant colonies was carried out. All tested concentrations, positive and negative controls were run in triplicate.

[2] = tested on: Salmonella typhimurium TA102; assay: AMES test, mutagenic evaluation in Salmonella typhimurium TA102 strain with/without metabolic activation (S9); assay type: cell-based
Experimental: as §1, §2, §3, §4, §5, §6, §7, §8, §9, §10, §11, §12, §13, §14

[3] = tested on: abdominal writhing induced by acetic acid; assay: Abdominal writhing assay induced by acetic acid; assay type: in vivo; conditions: oral, mice, acetic acid 0.1N i.p. after 1 hour, writhings counted during 20 minutes
Experimental: In order to evaluate the peripheral analgesic activity of the compounds, an abdominal writhing assay induced by acetic acid (Table 6) was carried out. In this assay, we could infer that compound ID has an important analgesic activity, inhibiting abdominal writhing by 66%. […] The analgesic activity may be related to the ability of these compounds to inhibit the cytokine TNFα, since it is known that this would be one of the mechanisms that explain the analgesia of molecules such as thalidomide.
The antinociceptive profile was evaluated through the abdominal writhing assay induced by acetic acid in mice. In this assay, Swiss mice from both genders were used, weighing from 21 to 28 grams, fasted for a time period of about 8 hours. The test substance was administered orally and had, as a carrier, 5% gum arabic. After 1 hour, the administration of acetic acid 0.1N (0.1 mL/10 g weight) was performed in the peritoneal cavity of the animals. Ten minutes after the injection of acetic acid, writhings were counted during 20 minutes.

## O=C1c2ccccc2C(=O)N1CO[N+](=O)[O-] [Compound IA, (1,3-dioxo-1,3-dihydro-2H-isoindol-2-yl)methyl nitrate]
[1]; TA 100, +S9, 7.25 nmol/plate
  mutagenicity ratio (MR): 1.19
  number of revertants per plate: 154 ± 14.2 revertants/plate
[1]; TA 100, +S9, 14.5 nmol/plate
  mutagenicity ratio (MR): 1.19
  number of revertants per plate: 155 ± 5.9 revertants/plate
[1]; TA 100, +S9, 29 nmol/plate
  mutagenicity ratio (MR): 1.08
  number of revertants per plate: 140.3 ± 2 revertants/plate
[1]; TA 100, +S9, 56 nmol/plate
  mutagenicity ratio (MR): 0.97
  number of revertants per plate: 126.3 ± 8.1 revertants/plate
[1]; TA 100, +S9, 112 nmol/plate
  mutagenicity ratio (MR): 1.03
  number of revertants per plate: 133.3 ± 11 revertants/plate
[1]; TA 100, −S9, 7.25 nmol/plate
  mutagenicity ratio (MR): 1.03
  number of revertants per plate: 140.5 ± 17 revertants/plate
[1]; TA 100, −S9, 14.5 nmol/plate
  mutagenicity ratio (MR): 1.18
  number of revertants per plate: 161.7 ± 11 revertants/plate
[1]; TA 100, −S9, 29 nmol/plate
  mutagenicity ratio (MR): 0.9
  number of revertants per plate: 122.7 ± 3.06 revertants/plate
[1]; TA 100, −S9, 56 nmol/plate
  mutagenicity ratio (MR): 1.71
  number of revertants per plate: 234 ± 39.5 revertants/plate
[1]; TA 100, −S9, 112 nmol/plate
  mutagenicity ratio (MR): 2.45
  number of revertants per plate: 335 ± 15.7 revertants/plate
[2]; TA102 (+S9)
  concentration above which toxicity is observed (reduction on the number of revertants per plate): higher than 56 nmol
[2]; TA 102, +S9, 7.25 nmol/plate
  mutagenicity ratio (MR): 1.4
  number of revertants per plate: 298 ± 11.3 revertants/plate
[2]; TA 102, +S9, 14.5 nmol/plate
  mutagenicity ratio (MR): 1.5
  number of revertants per plate: 320.8 ± 17 revertants/plate
[2]; TA 102, +S9, 29 nmol/plate
  mutagenicity ratio (MR): 1.8
  number of revertants per plate: 385 ± 21.8 revertants/plate
[2]; TA 102, +S9, 56 nmol/plate
  mutagenicity ratio (MR): 2.34
  number of revertants per plate: 499 ± 8.9 revertants/plate
[2]; TA 102, +S9, 112 nmol/plate
  mutagenicity ratio (MR): 1.64
  number of revertants per plate: 351.2 ± 12 revertants/plate
[2]; TA 102, −S9, 7.25 nmol/plate
  mutagenicity ratio (MR): 1.33
  number of revertants per plate: 263.7 ± 15 revertants/plate
[2]; TA 102, −S9, 14.5 nmol/plate
  mutagenicity ratio (MR): 1.26
  number of revertants per plate: 249.7 ± 12 revertants/plate
[2]; TA 102, −S9, 29 nmol/plate
  mutagenicity ratio (MR): 1.32
  number of revertants per plate: 261.3 ± 20 revertants/plate
[2]; TA 102, −S9, 56 nmol/plate
  mutagenicity ratio (MR): 0.77
  number of revertants per plate: 153 ± 21 revertants/plate
[2]; TA 102, −S9, 112 nmol/plate
  mutagenicity ratio (MR): 0.71
  number of revertants per plate: 141 ± 18 revertants/plate
[3]
  Average (abdominal writhings): 28.6

## O=C1c2ccccc2C(=O)N1c1ccc(CCO[N+](=O)[O-])cc1 [Compound IE, 2-[4-(1,3-dioxo-1,3-dihydro-2H-isoindol-2-yl)phenyl]ethyl nitrate]
[1]; TA 100, +S9, 0.12 μmol/plate
  mutagenicity ratio (MR): 2.8
  number of revertants per plate: 363 ± 25.2 revertants/plate
[1]; TA 100, +S9, 0.25 μmol/plate
  mutagenicity ratio (MR): 3.7
  number of revertants per plate: 478.7 ± 4.22 revertants/plate
[1]; TA 100, +S9, 0.5 μmol/plate
  mutagenicity ratio (MR): 4.86
  number of revertants per plate: 628 ± 40.8 revertants/plate
[1]; TA 100, +S9, 1 μmol/plate
  mutagenicity ratio (MR): 5.72
  number of revertants per plate: 739 ± 25.4 revertants/plate
[1]; TA 100, +S9, 2 μmol/plate
  mutagenicity ratio (MR): 5.79
  number of revertants per plate: 750 ± 13.6 revertants/plate
[1]; TA 100, −S9, 0.12 μmol/plate
  mutagenicity ratio (MR): 1.04
  number of revertants per plate: 143.3 ± 5 revertants/plate
[1]; TA 100, −S9, 0.25 μmol/plate
  mutagenicity ratio (MR): 0.99
  number of revertants per plate: 135.3 ± 12 revertants/plate
[1]; TA 100, −S9, 0.5 μmol/plate
  mutagenicity ratio (MR): 0.99
  number of revertants per plate: 136.3 ± 13 revertants/plate
[1]; TA 100, −S9, 1 μmol/plate
  mutagenicity ratio (MR): 0.89
  number of revertants per plate: 121.5 ± 14 revertants/plate
[1]; TA 100, −S9, 2 μmol/plate
  mutagenicity ratio (MR): 1.30
  number of revertants per plate: 177 ± 23.6 revertants/plate
[2]; TA 102, +S9, 0.12 μmol/plate
  mutagenicity ratio (MR): 0.9
  number of revertants per plate: 335.3 ± 11 revertants/plate
[2]; TA 102, +S9, 0.25 μmol/plate
  mutagenicity ratio (MR): 0.8
  number of revertants per plate: 295.3 ± 28 revertants/plate
[2]; TA 102, +S9, 0.5 μmol/plate
  mutagenicity ratio (MR): 1.09
  number of revertants per plate: 406 ± 14.1 revertants/plate
[2]; TA 102, +S9, 1 μmol/plate
  mutagenicity ratio (MR): 1.25
  number of revertants per plate: 465 ± 10.6 revertants/plate
[2]; TA 102, +S9, 2 μmol/plate
  mutagenicity ratio (MR): 1.2
  number of revertants per plate: 447 ± 19.8 revertants/plate
[2]; TA 102, −S9, 0.12 μmol/plate
  mutagenicity ratio (MR): 1.29
  number of revertants per plate: 256 ± 6.9 revertants/plate
[2]; TA 102, −S9, 0.25 μmol/plate
  mutagenicity ratio (MR): 1.32
  number of revertants per plate: 262 ± 19.1 revertants/plate
[2]; TA 102, −S9, 0.5 μmol/plate
  mutagenicity ratio (MR): 1.35
  number of revertants per plate: 266.7 ± 18 revertants/plate
[2]; TA 102, −S9, 1 μmol/plate
  mutagenicity ratio (MR): 1.34
  number of revertants per plate: 265.7 ± 10 revertants/plate
[2]; TA 102, −S9, 2 μmol/plate
  mutagenicity ratio (MR): 1.02
  number of revertants per plate: 201 ± 4.7 revertants/plate
